ChEMBL document CHEMBL1201862, “PubChem BioAssay data set” (2004)
Active and inactive are the calls of the source.

How the values were obtained:
INS1 = test: beta cell apoptosis inhibitors, cytokine rescue, dose response, luminescence, retest (AID 449756); format: functional, cell-based; settings: Rattus norvegicus;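 also: cell death triggered by IL-1 beta plus TNF-alpha plus IFN-gamma mixture; protective hits raise ATP signal compared with cytokine alone wells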
[1] = biological target: T1, Corticotropin-releasing factor receptor 2/Corticotropin-releasing factor-binding protein (Homo sapiens, UniProt P24387+Q13324); test: activators of CRF receptor 2 with binding protein – uHTS hits, confirmation (AID 602473); format: functional; settings: read-out: EC50_Mean
T1 sequence (Q13324 whole entry): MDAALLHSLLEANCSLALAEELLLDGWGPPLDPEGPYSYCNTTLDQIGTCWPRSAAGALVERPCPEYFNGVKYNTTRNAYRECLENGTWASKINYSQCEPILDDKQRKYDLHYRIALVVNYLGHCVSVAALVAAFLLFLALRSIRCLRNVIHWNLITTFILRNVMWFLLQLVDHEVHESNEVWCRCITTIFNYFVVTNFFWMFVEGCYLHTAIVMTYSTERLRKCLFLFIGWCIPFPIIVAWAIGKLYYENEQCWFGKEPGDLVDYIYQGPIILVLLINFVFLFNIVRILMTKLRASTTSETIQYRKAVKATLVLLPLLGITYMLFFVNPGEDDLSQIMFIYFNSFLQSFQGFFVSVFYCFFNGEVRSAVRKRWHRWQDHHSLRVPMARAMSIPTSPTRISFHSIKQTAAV
T1 sequence (P24387 whole entry): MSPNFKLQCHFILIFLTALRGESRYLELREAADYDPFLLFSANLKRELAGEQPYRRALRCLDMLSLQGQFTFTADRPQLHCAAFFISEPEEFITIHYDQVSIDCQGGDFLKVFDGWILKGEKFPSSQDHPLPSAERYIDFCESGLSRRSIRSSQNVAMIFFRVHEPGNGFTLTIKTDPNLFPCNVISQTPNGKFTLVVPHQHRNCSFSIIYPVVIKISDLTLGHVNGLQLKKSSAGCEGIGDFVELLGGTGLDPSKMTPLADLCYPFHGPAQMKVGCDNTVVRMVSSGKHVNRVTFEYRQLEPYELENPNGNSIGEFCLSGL

Cytochrome P450 3A4 = Cytochrome P450 3A4 (Homo sapiens, UniProt P08684);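 also: CYP3A4 tested as one member of a cytochrome P450 panel screen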
Sequence of Cytochrome P450 3A4 (P08684 whole entry): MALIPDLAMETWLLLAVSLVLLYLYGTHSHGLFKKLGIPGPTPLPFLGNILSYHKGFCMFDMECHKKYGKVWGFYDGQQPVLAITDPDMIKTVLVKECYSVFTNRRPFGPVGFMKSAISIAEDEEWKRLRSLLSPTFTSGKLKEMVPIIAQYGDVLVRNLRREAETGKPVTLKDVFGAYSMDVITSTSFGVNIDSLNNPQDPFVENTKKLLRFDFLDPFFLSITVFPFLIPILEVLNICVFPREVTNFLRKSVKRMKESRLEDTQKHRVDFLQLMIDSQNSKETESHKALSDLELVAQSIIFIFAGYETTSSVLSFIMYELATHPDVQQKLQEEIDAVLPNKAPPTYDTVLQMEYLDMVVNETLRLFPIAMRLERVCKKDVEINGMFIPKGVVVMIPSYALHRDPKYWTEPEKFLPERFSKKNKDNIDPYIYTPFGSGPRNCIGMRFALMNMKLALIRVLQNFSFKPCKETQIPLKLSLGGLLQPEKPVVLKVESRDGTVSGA

Cytochrome P450 2C19 = Cytochrome P450 2C19 (Homo sapiens, UniProt P33261); test: Cytochrome panel assay with activity outcomes. Panel member name: p450-cyp2c19 Compounds with AC50 equal or less than 10 uM are considered active; format: functional
Sequence of Cytochrome P450 2C19 (P33261 whole entry): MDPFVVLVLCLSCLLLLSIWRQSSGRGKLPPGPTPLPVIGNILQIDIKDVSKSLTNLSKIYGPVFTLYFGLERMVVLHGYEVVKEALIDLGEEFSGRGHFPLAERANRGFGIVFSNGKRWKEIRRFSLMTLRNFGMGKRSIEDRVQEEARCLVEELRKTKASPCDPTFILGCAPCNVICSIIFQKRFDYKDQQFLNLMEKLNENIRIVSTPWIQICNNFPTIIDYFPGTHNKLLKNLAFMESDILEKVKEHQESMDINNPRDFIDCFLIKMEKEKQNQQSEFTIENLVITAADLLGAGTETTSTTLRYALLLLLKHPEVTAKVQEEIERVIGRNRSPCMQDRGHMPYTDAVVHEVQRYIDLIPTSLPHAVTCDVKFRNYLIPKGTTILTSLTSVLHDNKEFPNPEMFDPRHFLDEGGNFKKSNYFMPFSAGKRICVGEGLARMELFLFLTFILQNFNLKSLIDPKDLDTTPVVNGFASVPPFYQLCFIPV

Cytochrome P450 2C9 = Cytochrome P450 2C9 (Homo sapiens, UniProt P11712)
Sequence of Cytochrome P450 2C9 (P11712 whole entry): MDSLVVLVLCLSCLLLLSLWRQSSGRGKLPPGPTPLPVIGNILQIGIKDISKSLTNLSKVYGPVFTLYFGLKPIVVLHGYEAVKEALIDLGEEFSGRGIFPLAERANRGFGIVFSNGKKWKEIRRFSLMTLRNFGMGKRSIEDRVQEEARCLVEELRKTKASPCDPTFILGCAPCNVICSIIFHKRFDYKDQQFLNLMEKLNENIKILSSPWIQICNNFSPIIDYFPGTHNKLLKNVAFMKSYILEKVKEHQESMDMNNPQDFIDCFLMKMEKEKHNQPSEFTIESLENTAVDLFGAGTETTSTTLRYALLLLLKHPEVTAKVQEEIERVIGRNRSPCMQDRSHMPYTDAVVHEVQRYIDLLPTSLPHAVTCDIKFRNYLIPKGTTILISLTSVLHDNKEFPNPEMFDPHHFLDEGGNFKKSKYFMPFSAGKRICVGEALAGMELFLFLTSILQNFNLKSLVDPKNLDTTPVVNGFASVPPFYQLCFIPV

Cytochrome P450 1A2 = biological target: T2, Cytochrome P450 1A2 (Homo sapiens, UniProt P05177);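 also: PubChem cytochrome P450 panel assay, CYP1A2 panel member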
T2 sequence (P05177 whole entry): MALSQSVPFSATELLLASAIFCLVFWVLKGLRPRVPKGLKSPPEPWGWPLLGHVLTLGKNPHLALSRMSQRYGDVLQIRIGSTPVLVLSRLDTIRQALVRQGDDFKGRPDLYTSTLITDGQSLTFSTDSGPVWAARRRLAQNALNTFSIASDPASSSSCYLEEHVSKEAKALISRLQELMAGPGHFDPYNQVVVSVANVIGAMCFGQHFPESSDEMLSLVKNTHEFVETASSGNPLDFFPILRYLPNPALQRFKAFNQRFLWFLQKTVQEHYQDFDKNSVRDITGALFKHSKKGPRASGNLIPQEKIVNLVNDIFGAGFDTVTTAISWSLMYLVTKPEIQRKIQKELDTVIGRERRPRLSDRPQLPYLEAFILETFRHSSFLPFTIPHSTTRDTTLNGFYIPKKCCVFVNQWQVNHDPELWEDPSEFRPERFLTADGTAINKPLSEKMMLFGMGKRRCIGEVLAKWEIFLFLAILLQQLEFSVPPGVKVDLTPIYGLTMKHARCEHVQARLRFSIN

Protein RecA = biological target: T3, Protein RecA (Mycobacterium tuberculosis, UniProt P9WHJ3); test: Fluorescence Cell-Free Homogeneous Dose Retest to Identify Inhibitors of RecA-Intein Splicing Activity. [Related pubchem assays (depositor defined):AID2097, AID2223, AID489010, AID492950]; format: functional
T3 sequence (P9WHJ3 whole entry): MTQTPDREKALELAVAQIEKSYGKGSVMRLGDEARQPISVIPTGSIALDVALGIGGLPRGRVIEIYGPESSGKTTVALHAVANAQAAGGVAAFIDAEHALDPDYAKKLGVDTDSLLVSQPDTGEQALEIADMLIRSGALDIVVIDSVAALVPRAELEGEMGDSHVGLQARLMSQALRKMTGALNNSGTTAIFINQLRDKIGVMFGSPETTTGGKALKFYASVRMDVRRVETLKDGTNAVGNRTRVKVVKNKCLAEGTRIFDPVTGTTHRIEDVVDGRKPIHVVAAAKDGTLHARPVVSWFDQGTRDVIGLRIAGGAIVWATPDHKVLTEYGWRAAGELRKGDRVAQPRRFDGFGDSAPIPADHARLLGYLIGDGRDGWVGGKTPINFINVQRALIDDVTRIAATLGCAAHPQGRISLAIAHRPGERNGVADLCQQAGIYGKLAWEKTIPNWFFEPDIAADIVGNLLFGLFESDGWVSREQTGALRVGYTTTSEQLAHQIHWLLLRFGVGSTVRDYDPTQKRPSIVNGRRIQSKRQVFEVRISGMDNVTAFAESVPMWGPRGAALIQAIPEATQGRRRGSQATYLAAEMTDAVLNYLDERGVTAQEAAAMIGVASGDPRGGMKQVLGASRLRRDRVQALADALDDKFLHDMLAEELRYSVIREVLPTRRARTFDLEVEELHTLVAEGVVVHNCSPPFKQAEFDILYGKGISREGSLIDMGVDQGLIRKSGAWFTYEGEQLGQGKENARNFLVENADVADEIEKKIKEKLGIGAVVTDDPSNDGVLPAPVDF

COc1ccc(Br)cc1CN(C)CC(=O)NCc1ccc(F)cc1
AC50 (INS1): 114 µM (active)

COc1ccc(C(=O)Cn2cnc3ccccc3c2=O)c(OC)c1
EC50 [1]: > 53 µM (inactive)

COc1ccc(CN(C2CCCCC2C)S(=O)(=O)c2ccc(S(=O)(=O)N(C)C)cc2)cc1OC (configuration not stated)
EC50 [1]: 5.42 µM (active)

O=C1[C@@H]2[C@H]3[C@H](O)[C@H](O)C/C(=N/OC[C@@H](O)COCc4ccco4)[C@H]3CC[C@H]2C(=O)N1c1ccc(F)cc1F
AC50 (Cytochrome P450 3A4): 3.16 µM (inconclusive)
AC50 (Cytochrome P450 2C19): inconclusive

COc1ccc(NC(=N)SCc2ccccn2)cc1
EC50 [1]: 15.6 µM (active)

Cc1ccc(S(=O)(=O)N2CCN(c3ncnc4scc(-c5ccccc5)c34)CC2)cc1
EC50 [1]: 2.65 µM (active)

C/C(Cl)=C/CSc1nnc2n(N)c(=O)c3ccccc3n12
AC50 (Cytochrome P450 2C9): 22.4 µM (inconclusive)
AC50 (Cytochrome P450 2C19; read-out: AC50): 25.1 µM (inconclusive)

COc1ccc(CNS(=O)(=O)NCc2ccccc2)cc1OC
EC50 [1]: > 53 µM (inactive)

O=C(NCCO)c1cc2c(s1)CCC2
AC50 (Cytochrome P450 2C9): 12.6 µM (inconclusive)
AC50 (Cytochrome P450 2C19; read-out: AC50): 5.01 µM (inconclusive)
AC50 (Cytochrome P450 1A2): 14.1 µM (inconclusive)

O=C(c1ccc(S(=O)(=O)Nc2ccccc2)cc1)N1CCCC(C(F)(F)F)C1 (configuration not stated)
EC50 [1]: 10.5 µM (active)

CCN=C(S)N(CCc1ccc(S(N)(=O)=O)cc1)C1CC(=O)N(c2ccccc2)C1=O (configuration not stated)
EC50 [1]: 18.5 µM (active)

CC1(c2ccc(OC(F)F)cc2)NC(=O)N(CC(=O)Nc2ccc3c(c2)OCO3)C1=O (configuration not stated)
EC50 [1]: 5.24 µM (active)

C=C[C@H](CC(C)C)N(Cc1ccccc1)S(=O)(=O)N(Cc1ccc(OC)cc1)[C@H](C=C)CC(C)C
AC50 (INS1): 5.78 µM (active)

O=C(NCc1nc2ccccc2[nH]1)[C@H]1C[C@@H]1[C@H](NP(=O)(c1ccccc1)c1ccccc1)c1ccccc1
AC50 (Cytochrome P450 3A4): 0.794 µM (inconclusive)
AC50 (Cytochrome P450 2C19; read-out: AC50): 39.8 µM (inconclusive)
AC50 (Cytochrome P450 1A2): 15.8 µM (inconclusive)

CCC1(O)c2ccccc2-c2ncccc21 (configuration not stated)
AC50 (Cytochrome P450 2C19; read-out: AC50): 39.8 µM (inconclusive)

Cc1ccc(N(Cc2cc(=O)[nH]c3ccccc23)C(=O)CCl)cc1
EC50 (Protein RecA): > 380 µM (inconclusive)

COc1cnc(-c2ccccn2)nc1Sc1c(Cl)cccc1Cl
AC50 (Cytochrome P450 2C9): 15.8 µM (inconclusive)
AC50 (Cytochrome P450 2C19; read-out: AC50): 8.91 µM (inconclusive)
AC50 (Cytochrome P450 1A2): 2.82 µM (inconclusive)

CCCCCCc1ccc(N2C[C@H](Cc3ccccc3)[C@@H](CC(=O)NCc3ccc(OC)cc3)C2=O)cc1
AC50 (INS1): 7.78 µM (active)

Clc1ccc(-c2nnc(-c3ccc(Br)cc3)c(N3CCSCC3)n2)cc1
AC50 (Cytochrome P450 2C9): 10 µM (inconclusive)
AC50 (Cytochrome P450 2C19; read-out: AC50): 11.2 µM (inconclusive)

CCOC(=O)c1ccc(CNC(=O)Cn2nnc(-c3ccccc3)n2)o1
EC50 [1]: > 53 µM (inactive)

Cn1cccc1C(=O)N1CCC2(CCN(Cc3ccccc3)CC2)CC1
AC50 (Cytochrome P450 2C19; read-out: AC50): 39.8 µM (inconclusive)

Cc1cccc(CNc2ccc(S(=O)(=O)N3CCCCC3)cc2)c1
AC50 (INS1): 27.2 µM (active)

O=[N+]([O-])c1ccc(N2CCN(CCOc3nonc3-c3ccccc3)CC2)c(Cl)c1
AC50 (INS1): 4.8 µM (active)
AC50 (Cytochrome P450 3A4): 14.1 µM (inconclusive)

N#Cc1ccc(-c2csc(NNC(=O)c3ccccc3)n2)cc1
AC50 (INS1): > 260 µM (inactive)

CCCn1c(=O)c(C(=O)NNC(=O)c2ccccc2Cl)c(O)c2ccccc21
EC50 [1]: 5.81 µM (active)

Cc1noc(C)c1C(=O)N1CCC[C@@]2(CCN(Cc3cc(C(F)(F)F)cc(C(F)(F)F)c3)C2)C1
AC50 (Cytochrome P450 3A4): 7.94 µM (inconclusive)
AC50 (Cytochrome P450 2C19): inconclusive

CCOC(=O)c1cc(NC(=O)c2ccc(C)cc2)c(=O)oc1-c1ccccc1
AC50 (Cytochrome P450 3A4): 28.2 µM (inconclusive)
AC50 (Cytochrome P450 2C19; read-out: AC50): 2.82 µM (inconclusive)

CCO/C=C1/C(=O)N(C)C(=O)c2cc(OC)ccc21
EC50 (Protein RecA): > 380 µM (inactive)

NCCNC(=S)S
AC50 (Cytochrome P450 2C9): 6.31 µM (inconclusive)
AC50 (Cytochrome P450 2C19; read-out: AC50): 3.98 µM (inconclusive)

COc1ccc(-[n+]2c(-c3ccc(Cl)cc3)cn3c2CCCCC3)cc1
AC50 (INS1): 1.44 µM (active)

COc1ccc(Oc2ncc3nc(-c4ccc(Cl)cc4)c(=O)n(C[C@H]4CCCO4)c3n2)cc1
AC50 (Cytochrome P450 2C19; read-out: AC50): 25.1 µM (inconclusive)

COC(=O)[C@@]1(Cc2ccc(OC)cc2)[C@H]2c3cc(C(=O)N(C)C)n(Cc4ccc(C(F)(F)F)nc4)c3C[C@H]2CN1C(=O)c1ccccc1
AC50 (Cytochrome P450 2C9): 39.8 µM (inconclusive)
AC50 (Cytochrome P450 2C19; read-out: AC50): 39.8 µM (inconclusive)

CN1C(=O)C(CC(=O)Nc2ccc(F)cc2)N(CCCc2ccccc2)C1=S (configuration not stated)
AC50 (Cytochrome P450 3A4): 22.4 µM (inconclusive)
AC50 (Cytochrome P450 2C9): 2.82 µM (inconclusive)
AC50 (Cytochrome P450 2C19; read-out: AC50): 1.78 µM (inconclusive)
AC50 (Cytochrome P450 1A2): 25.1 µM (inconclusive)

Clc1ccc(C(c2ccc(Cl)cc2)[n+]2ccn(C[C@@H](OCc3ccc(Cl)cc3Cl)c3ccc(Cl)cc3Cl)c2)cc1
AC50 (Cytochrome P450 2C19; read-out: AC50): 25.1 µM (inconclusive)

Cc1cccc(CS(=O)(=O)Cc2ccc(C(=O)NCc3ccco3)o2)c1
AC50 (Cytochrome P450 3A4): 39.8 µM (inconclusive)
AC50 (Cytochrome P450 2C9): 7.08 µM (inconclusive)
AC50 (Cytochrome P450 2C19; read-out: AC50): 3.55 µM (inconclusive)
AC50 (Cytochrome P450 1A2): 5.01 µM (inconclusive)

Cc1ccc2[nH]c3nc(CCCn4ccnc4-c4ccccc4)nnc3c2c1
AC50 (Cytochrome P450 3A4): 3.16 µM (inconclusive)
AC50 (Cytochrome P450 2C19; read-out: AC50): 2.51 µM (inconclusive)

COC(=O)c1ccc(NC(C)=O)o1
AC50 (Cytochrome P450 2C19; read-out: AC50): 39.8 µM (inconclusive)
AC50 (Cytochrome P450 1A2): 22.4 µM (inconclusive)

COCCCn1nnnc1SCC(=O)N1CCCC1
AC50 (Cytochrome P450 2C9): 0.0126 µM (inconclusive)
AC50 (Cytochrome P450 2C19; read-out: AC50): 25.1 µM (inconclusive)

Cc1nn(C)c(C(=O)N/N=C/c2cccc(Oc3ccccc3)c2)c1Br
EC50 [1]: > 53 µM (inactive)

CC(=O)Nc1ccc(/C=N/N2C(=O)NC(C)(c3ccc(OC(F)F)cc3)C2=O)cc1 (configuration not stated)
EC50 [1]: 1.37 µM (active)

COCCCNC(=S)N/N=C/c1cccc(OC)c1O
AC50 (INS1): 2.44 µM (active)

Cc1nnc(S)n1/N=C/c1ccccc1OCc1ccc(Cl)cc1
AC50 (Cytochrome P450 2C19; read-out: AC50): 11.2 µM (inconclusive)

C/C(=N/NC(=O)CN(c1ccccc1)S(=O)(=O)c1ccccc1)c1ccccc1O
AC50 (INS1): 2.01 µM (active)

COc1ccc(C(Cl)=C(c2ccc(OC)cc2)c2ccc(OC)cc2)cc1 [CHLOROTRIANISENE]
AC50 (Cytochrome P450 2C19; read-out: AC50): 0.1 µM (inconclusive)
